How the values were obtained:
[1] = tested on: MIA PaCa-2 (KRAS G12C) cells; test: Cellular pERK HTRF assay (KRAS_G12C pERK); format: cell-based, human; details: Homo sapiens, MIA PaCa-2, 4 hours incubation, read-out: G12C_pERK
Summary of the method: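 Phospho-ERK1/2 HTRF readout (665 and 620 nm) in lysed MIA PaCa-2 cells, antibodies incubated overnight at room temperature. Cells seeded the day before and treated with G12C compounds for 4 h at 37 °C; IC50 fitted to percent inhibition against log inhibitor concentration.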

KRAS G12C = KRAS G12C (Homo sapiens, UniProt P01116, G12C); test: GDP-GTP exchange assay (KRAS_G12C exchange); format: biochemical; details: bodipy-GDP loaded KRAS G12C 2.5 nM, SOS1 150 nM, GppNHp; 2 hours pre-incubation, 2 hours reaction; read-out: G12C_exchange
Summary of the method: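 Fluorescence exchange of bodipy-GDP for GppNHp, SOS1-driven, read at 485/520 nm; IC50 from four-parameter variable-slope fit. Both mutants used 2.5 nM final labelled protein and a 2 h compound pre-incubation. G12C reaction had 500 uM GppNHp and 150 nM SOS1 for 2 h; G12D ran 4 h.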

KRAS G12C, sequence (P01116 1-188 isoform P01116-2 G12C): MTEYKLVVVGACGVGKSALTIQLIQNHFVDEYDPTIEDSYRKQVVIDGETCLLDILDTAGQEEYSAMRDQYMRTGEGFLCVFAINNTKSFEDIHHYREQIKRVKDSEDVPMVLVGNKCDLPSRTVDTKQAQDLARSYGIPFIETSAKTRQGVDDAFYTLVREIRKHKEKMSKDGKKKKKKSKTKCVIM

SMILES | IC50 [1] | IC50 (KRAS G12C)
Cc1cccc(-c2c(C)cc3c(nc(N4CC(N(C)C)C4)c4nnn([C@H]5CCN(C(=O)/C=C/CN(C)C)[C@H](CC#N)C5)c43)c2F)c1Cl [Example 249, 2-((2S,4S)-4-(7-(2-chloro-3-methylphenyl)-4-(3-(dimethylamino)azetidin-1-yl)-6-fluoro-8-methyl-1H-[1,2,3]triazolo[4,5-c]quinolin-1-yl)-1-((E)-4-(dimethylamino)but-2-enoyl)piperidin-2-yl)acetonitrile] | ≤ 0.1 µM | ≤ 0.1 µM
CC#CC(=O)N1CC[C@H](n2nnc3c(N4CC(N(C)C)C4)nc4c(F)c(-c5cccc(C)c5Cl)c(C)cc4c32)C[C@H]1CC#N [Example 250, 2-((2S,4S)-1-(but-2-ynoyl)-4-(7-(2-chloro-3-methylphenyl)-4-(3-(dimethylamino)azetidin-1-yl)-6-fluoro-8-methyl-1H-[1,2,3]triazolo[4,5-c]quinolin-1-yl)piperidin-2-yl)acetonitrile] | ≤ 0.1 µM | ≤ 0.1 µM
C=CC(=O)N1CC[C@H](n2nnc3c(OC[C@@H]4CCCN4C)nc4c(F)c(-c5cccc(C)c5Cl)c(C)cc4c32)C[C@H]1CC#N [Example 251, 2-((2S,4S)-1-acryloyl-4-(7-(2-chloro-3-methylphenyl)-6-fluoro-8-methyl-4-(((S)-1-methylpyrrolidin-2-yl)methoxy)-1H-[1,2,3]triazolo[4,5-c]quinolin-1-yl)piperidin-2-yl)acetonitrile] | ≤ 0.1 µM | ≤ 0.1 µM
Cc1cccc(-c2c(C)cc3c(nc(-n4ccnc4C)c4nnn([C@H]5CCN(C(=O)/C=C/CN(C)C)[C@H](CC#N)C5)c43)c2F)c1Cl [Example 252, 2-((2S,4S)-4-(7-(2-chloro-3-methylphenyl)-6-fluoro-8-methyl-4-(2-methyl-1H-imidazol-1-yl)-1H-[1,2,3]triazolo[4,5-c]quinolin-1-yl)-1-((E)-4-(dimethylamino)but-2-enoyl)piperidin-2-yl)acetonitrile] | ≤ 0.1 µM | ≤ 0.1 µM
Cc1cccc(-c2c(C)cc3c(nc(OC[C@@H]4CCCN4C)c4nnn([C@H]5CCN(C(=O)/C=C/CF)[C@H](CC#N)C5)c43)c2F)c1Cl [Example 253, 2-((2S,4S)-4-(7-(2-chloro-3-methylphenyl)-6-fluoro-8-methyl-4-(((S)-1-methylpyrrolidin-2-yl)methoxy)-1H-[1,2,3]triazolo[4,5-c]quinolin-1-yl)-1-((E)-4-fluorobut-2-enoyl)piperidin-2-yl)acetonitrile] | ≤ 0.1 µM | ≤ 0.1 µM

The next lines start with the values.

IC50 [1] | IC50 (KRAS G12C) | SMILES
≤ 0.1 µM | ≤ 0.1 µM | COc1c(C)cccc1-c1c(C(F)(F)F)cc2c(nc(N3CC(C)(N(C)C)C3)c3nnn([C@H]4CCN(C(=O)/C=C/CN(C)C)[C@H](CC#N)C4)c32)c1F [Example 246, 2-((2S,4S)-4-(7-(2-methoxy-3-methylphenyl)-4-(3-(dimethylamino)-3-methylazetidin-1-yl)-6-fluoro-8-(trifluoromethyl)-1H-[1,2,3]triazolo[4,5-c]quinolin-1-yl)-1-((E)-4-(dimethylamino)but-2-enoyl)piperidin-2-yl)acetonitrile]
≤ 0.1 µM | ≤ 0.1 µM | C=CC(=O)N1CC[C@H](n2nnc3c(N4CC(N(C)C)C4)nc4c(F)c(-c5cccc(C)c5Cl)c(C)cc4c32)C[C@H]1CC#N [Example 247, 2-((2S,4S)-1-acryloyl-4-(7-(2-chloro-3-methylphenyl)-4-(3-(dimethylamino)azetidin-1-yl)-6-fluoro-8-methyl-1H-[1,2,3]triazolo[4,5-c]quinolin-1-yl)piperidin-2-yl)acetonitrile]
≤ 0.1 µM | ≤ 0.1 µM | Cc1cccc(-c2c(C)cc3c(nc(N4CC(N(C)C)C4)c4nnn([C@H]5CCN(C(=O)/C=C/CF)[C@H](CC#N)C5)c43)c2F)c1Cl [Example 248, 2-((2S,4S)-4-(7-(2-chloro-3-methylphenyl)-4-(3-(dimethylamino)azetidin-1-yl)-6-fluoro-8-methyl-1H-[1,2,3]triazolo[4,5-c]quinolin-1-yl)-1-((E)-4-fluorobut-2-enoyl)piperidin-2-yl)acetonitrile]
